Series [1] has as its system Proteus mirabilis. Kind of series: Activity in vitro: Minimum inhibitory concentration. To be noted: read-out: Minimum inhibitory concentration. Format: cell-based. From the text:
(§1) Activity in vitro: Minimum inhibitory concentration

The test system of series [2] is Proteus vulgaris. The description is as above. The conditions noted are these: read-out: Minimum inhibitory concentration. The format is cell-based.
Description: as §1

The test system of series [3] is Pseudomonas aeruginosa strain 1. Described as above. The format is cell-based.
Description: as §1

Series [4] concerns Haemophilus influenzae. Described as above. The format is cell-based. To be noted: read-out: Minimum inhibitory concentration.
Description: as §1

The subject of series [5] is Escherichia coli. The description is as above. The format is cell-based. The conditions noted are these: read-out: Minimum inhibitory concentration.
Description: as §1

The test system of series [6] is Pseudomonas aeruginosa strain 2. The series is described as above. The format is cell-based.
Description: as §1

In series [7] the test system is Serratia marcescens. Described as above. Format: cell-based. The conditions noted are these: read-out: Minimum inhibitory concentration.
Description: as §1

Series [8] has as its system Neisseria gonorrhoeae. The description is as above. The format is cell-based. The conditions noted are these: read-out: Minimum inhibitory concentration.
Description: as §1

For series [9], the system named is Enterobacter cloacae. The series is described as above. The conditions noted are these: read-out: Minimum inhibitory concentration. The format is cell-based.
Description: as §1

The subject of series [10] is Staphylococcus aureus. The series is described as above. Format: cell-based. The conditions noted are these: read-out: Minimum inhibitory concentration.
Description: as §1

A short description of series [11]: Toxicity (LD100). Format: in vivo.
Setting [12] is: in vitro, lactamase forming strain.

From patent publication US4482551A, “Cephalosporin derivatives” (Hoffmann-La Roche Inc., priority 1982, dated 1984) come the findings set out here.

Structures are written as SMILES. Structures can show the parent of a compound that is named as a salt. Where two headings read alike, the source gives them in different places.

Regarding `CO/N=C(\C(=O)N[C@@H]1C(=O)N2C(C(=O)[O-])=C(CSc3nc(=O)cnn3C)CS[C@H]12)c1csc(N)n1.[Na+]`, the MIC in series [1] is 0.04 µg/mL; in series [2], 0.02 µg/mL; in series [3] (Pseudomonas aeruginosa, 1, read-out: Minimum inhibitory concentration) it was 40 µg/mL; in series [4], 0.02 µg/mL; in series [5] it was 0.04 µg/mL; in [6] (Pseudomonas aeruginosa, 2, read-out: Minimum inhibitory concentration) it was 40 µg/mL. Further, the MIC in series [7] is 0.16 µg/mL; in series [8], 0.02 µg/mL; in series [9] it was 2.5 µg/mL; in series [10], 2.5 µg/mL. Moreover, the LD100 in series [11] (i.v.) is listed as 1000 mg/kg; in [11] (p.o.) it was greater than 5000 mg/kg; in [11] (s.c.), greater than 5000 mg/kg.

`CO/N=C(\C(=O)N[C@@H]1C(=O)N2C(C(=O)O)=C(CSc3nc(=O)c(C)nn3C)CS[C@H]12)c1csc(N)n1` [Product B, (6R,7R)-7-[2-(2-amino-4-thiazolyl-2-[(Z)-methoxyimino]acetamido]-3-[[(2,5-dihydro-2,6-dimethyl-5-oxo-as-triazin-3-yl)thio]methyl]-8-oxo-5-thia-1-azabicyclo[4.2.0]oct-2-ene-2-carboxylic acid sodium salt]: the MIC in series [1] (setting [12]) was found to be 0.08 µg/mL; in [2] (setting [12]), 0.02 µg/mL; in series [3] (in vitro, Pseudomonas aeruginosa strain 1, lactamase forming strain, read-out: Minimum inhibitory concentration), 80 µg/mL; in series [4] (in vitro), 0.02 µg/mL; in series [5] (setting [12]), 0.08 µg/mL; in [6] (in vitro, Pseudomonas aeruginosa strain 2, lactamase forming strain, read-out: Minimum inhibitory concentration) it was 80 µg/mL. Further, the MIC in series [7] (setting [12]) is 0.32 µg/mL; in [8] (in vitro), 0.02 µg/mL; in [9] (setting [12]), 2.5 µg/mL; in series [10] (in vitro), 2.5 µg/mL. The LD100 in series [11] (i.v.) is recorded as 500 mg/kg; in series [11] (p.o.), greater than 5000 mg/kg; in series [11] (s.c.), greater than 4000 mg/kg.
